Assay results published in ChEMBL document CHEMBL1201862, “PubChem BioAssay data set” (2004).
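Tested at 5 concentrations; 48 h exposure; 96-well plates; endpoints linearly interpolated, else capped at highest concentration. The concentration for 50% growth inhibition is given as GI50.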 Calls of active or inactive are those of the source. Rule as the data show it: active = GI50 up to about 1.1 µM and inactive = higher.

How the values were obtained:
Experiment in all cases: NCI tumour cell line growth inhibition, 48 h
[1] = system: 786-0
[2] = system: ACHN
[3] = system: BT-549
[4] = system: EKVX
[5] = system: HCT-116
[6] = system: HCT-15
[7] = system: HL-60
[8] = system: HOP-62
[9] = system: LOX IMVI
[10] = system: MDA-MB-231
[11] = system: MDA-N
[12] = system: Malme-3M
[13] = system: RPMI-8226
[14] = system: SF-295
[15] = system: SK-MEL-28
[16] = system: SK-MEL-2
[17] = system: SK-MEL-5
[18] = system: SNB-19
[19] = system: SNB-75
[20] = system: U-251

SMILES	GI50 [1]	GI50 [2]	GI50 [3]	GI50 [4]	GI50 [5]	GI50 [6]	GI50 [7]	GI50 [8]	GI50 [9]	GI50 [10]	GI50 [11]	GI50 [12]	GI50 [13]	GI50 [14]	GI50 [15]	GI50 [16]	GI50 [17]	GI50 [18]	GI50 [19]	GI50 [20]
Cn1c2ccccc2n2c3ncccc3c(=S)c(C#N)c12	75.7 µM (inactive)	> 100 µM (inactive)	> 100 µM (inactive)	> 100 µM (inactive)	> 100 µM (inactive)	> 100 µM	> 100 µM (inactive)	> 100 µM (inactive)	> 100 µM (inactive)	> 100 µM (inactive)	> 100 µM (inactive)	> 100 µM (inactive)	> 100 µM (inactive)	> 100 µM (inactive)	> 100 µM (inactive)	> 100 µM (inactive)	> 100 µM (inactive)	> 100 µM (inactive)	40.3 µM (inactive)	> 100 µM (inactive)
COc1cc(C(c2ccc3c(c2)OCO3)N2C(=O)CCC2C(=O)O)cc(OC)c1OC (stereo not given)	> 100 µM (inactive)	> 100 µM (inactive)	> 100 µM (inactive)	> 100 µM (inactive)	> 100 µM (inactive)	> 100 µM	> 100 µM (inactive)	> 100 µM (inactive)	> 100 µM (inactive)	> 100 µM (inactive)	> 100 µM (inactive)	> 100 µM (inactive)	> 100 µM (inactive)	> 100 µM (inactive)	> 100 µM (inactive)	> 100 µM (inactive)	> 100 µM (inactive)	> 100 µM (inactive)	> 100 µM (inactive)	> 100 µM (inactive)
Cc1ccc2c(c1)CN(C(=O)CCC(=O)OCc1ccccc1)c1ccc(C)cc1CN2C(=O)CCC(=O)OCc1ccccc1	> 90.8 µM (inactive)	> 100 µM (inactive)	> 100 µM (inactive)	> 100 µM (inactive)	> 100 µM (inactive)	> 100 µM	> 100 µM (inactive)	> 78 µM (inactive)	> 100 µM (inactive)	> 100 µM (inactive)	> 100 µM (inactive)	> 100 µM (inactive)	> 100 µM (inactive)	98.6 µM (inactive)	> 100 µM (inactive)	> 100 µM (inactive)	> 100 µM (inactive)	> 100 µM (inactive)	26.6 µM (inactive)	> 100 µM (inactive)
